The results in this text go back to patent US12522594B2, “2-heteroaryl-3-oxo-2,3-dihydropyridazine-4-carboxamides for the treatment of cancer” (Deutsches Krebsforschungszentrum, priority 2017, dated 2026).

The target of experiment [1] is T1, AHR (Homo sapiens, UniProt P35869).
T1 sequence (P35869 11-848): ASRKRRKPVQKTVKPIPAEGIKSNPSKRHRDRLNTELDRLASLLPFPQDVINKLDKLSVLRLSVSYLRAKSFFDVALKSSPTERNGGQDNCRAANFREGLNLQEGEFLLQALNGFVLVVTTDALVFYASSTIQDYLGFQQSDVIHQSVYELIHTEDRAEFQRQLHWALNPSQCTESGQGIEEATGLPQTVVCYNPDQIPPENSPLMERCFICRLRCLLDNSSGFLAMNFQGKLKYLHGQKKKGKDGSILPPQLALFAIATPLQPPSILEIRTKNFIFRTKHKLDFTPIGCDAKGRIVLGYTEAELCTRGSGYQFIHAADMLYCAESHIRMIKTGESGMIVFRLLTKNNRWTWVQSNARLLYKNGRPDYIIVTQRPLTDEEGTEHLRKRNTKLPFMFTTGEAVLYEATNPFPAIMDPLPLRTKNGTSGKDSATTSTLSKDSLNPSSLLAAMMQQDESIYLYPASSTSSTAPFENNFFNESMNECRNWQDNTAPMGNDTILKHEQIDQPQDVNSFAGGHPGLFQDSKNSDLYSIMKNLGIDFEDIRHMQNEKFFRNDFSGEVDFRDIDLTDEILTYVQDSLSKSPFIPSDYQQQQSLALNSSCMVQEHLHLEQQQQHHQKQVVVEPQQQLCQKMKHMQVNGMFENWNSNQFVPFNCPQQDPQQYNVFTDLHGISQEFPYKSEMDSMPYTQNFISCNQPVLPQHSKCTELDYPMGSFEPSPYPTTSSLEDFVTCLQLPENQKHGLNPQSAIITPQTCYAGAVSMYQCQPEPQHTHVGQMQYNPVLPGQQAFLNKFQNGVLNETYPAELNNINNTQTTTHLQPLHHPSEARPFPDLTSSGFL
The experiment in a line: In vitro assay 1: antagonism in human cell line (transactivation assay, U87 cells prestimulated with kynurenic acid, DRE firefly luciferase reporter). Further details: host or cells: U87 glioblastoma cells, stably transfected with DRE firefly luciferase and renilla reporter constructs. The class given is cell-based. The conditions noted are these: 150 uM kynurenic acid, 20 hours, read-out: Assay 1: AHR-luc Hum Antagonism IC50. The procedure: (§1) Transactivation Assay in Human Cell Line (In Vitro Assays 1 and 2)
(§2) Transactivation assays were carried out in U87 glioblastoma cells (ATCC) endogenously expressing AHR. In addition the cells were stably transfected with an AHR inducible firefly luciferase reporter gene construct that carried AHR-binding sites (DRE) in its promoter and a renilla reporter gene construct with constitutively active promoter. Kynurenic acid is an endogenous AHR activating ligand and was used to prestimulate test cells prior to testing the antagonistic properties of compounds.
In Vitro Assay 1: Antagonism in Human Cell Line
Normalization was done by positive and negative controls.
For orientation: Reporter assays use an easily measured gene product as a stand-in for the process of interest.

For experiment [2], the target named is T1, AHR. The experiment in a line: In vitro assay 2: agonism in human cell line (transactivation assay, U87 cells, DRE firefly luciferase reporter). The conditions noted are these: no kynurenic acid, 20 hours, read-out: Assay 2: AHR-luc Hum Agonism IC50. Type of experiment: cell-based. Further details: host or cells: U87 glioblastoma cells, stably transfected with DRE firefly luciferase and renilla reporter constructs. As for the experimental part:
as §1, §2
In Vitro Assay 2: Agonism in Human Cell Line
As positive activation control cells were incubated with 300 uM kynurenic acid. Normalization was done by positive and negative controls.

As for `CC(C)(O)C(NC(=O)c1cc(-c2ccc(Cl)cc2)nn(-c2cncnc2)c1=O)C(F)(F)F` (single isomer, unassigned) [Example 187, 6-(4-Chlorophenyl)-3-oxo-2-(pyrimidin-5-yl)-N-(1,1,1-trifluoro-3-hydroxy-3-methylbutan-2-yl)-2,3-dihydropyridazine-4-carboxamide], the concentration for half-maximal inhibition (IC50) (commonly the concentration at which inhibition is half-maximal) was 33.5 nM in experiment [1] and over 20000 nM in experiment [2].

For the compound `COC[C@@H](CO)NC(=O)c1cc(-c2ccc(Cl)cc2)nn(-c2cnn(C)c2)c1=O` [Example 30, 6-(4-Chlorophenyl)-N-[(2R)-1-hydroxy-3-methoxypropan-2-yl]-2-(1-methyl-1H-pyrazol-4-yl)-3-oxo-2,3-dihydropyridazine-4-carboxamide], the half-maximal inhibitory concentration (IC50) is 60.8 nM in experiment [1] and over 20000 nM in experiment [2].

`O=C(N[C@H](CO)C1CC1)c1cc(-c2ccc(C(F)F)cc2)nn(-c2cccnc2)c1=O` [Example 150, N-[(1S)-1-Cyclopropyl-2-hydroxyethyl]-6-[4-(difluoromethyl)phenyl]-3-oxo-2-(pyridin-3-yl)-2,3-dihydropyridazine-4-carboxamide]: the values for the IC50 in experiment [1] and in experiment [2] were 19.9 nM and over 20000 nM, respectively.

Regarding `O=C(N[C@@H]1COC[C@@H]1O)c1cc(-c2ccc(C(F)(F)F)cc2)nn(-c2cccnc2)c1=O` (racemic) [Example 107, N-[(3RS,4RS)-4-Hydroxytetrahydrofuran-3-yl]-3-oxo-2-(pyridin-3-yl)-6-[4-(trifluoromethyl)phenyl]-2,3-dihydropyridazine-4-carboxamide], the values for the IC50 in experiment [1] and in experiment [2] were 12.3 nM and over 20000 nM, respectively.

Take `Cn1cc(-n2nc(-c3ccc(Cl)cc3)cc(C(=O)NC(CO)C(F)(F)F)c2=O)cn1` (racemic) [Example 33, 6-(4-Chlorophenyl)-2-(1-methyl-1H-pyrazol-4-yl)-3-oxo-N-[(2RS)-1,1,1-trifluoro-3-hydroxypropan-2-yl]-2,3-dihydropyridazine-4-carboxamide]: the IC50 in experiment [1] is 2.66 nM; in experiment [2], over 20000 nM.

Turning to `C[C@H](NC(=O)c1cc(-c2ccc(OC(F)(F)F)cc2)nn(-c2cnsc2)c1=O)C(C)(C)O` [Example 312, N-[(2S)-3-Hydroxy-3-methylbutan-2-yl]-3-oxo-2-(1,2-thiazol-4-yl)-6-[4-(trifluoromethoxy)phenyl]-2,3-dihydropyridazine-4-carboxamide], the IC50 was 1.85 nM in experiment [1] and over 20000 nM in experiment [2].

For the compound `Cn1cc(-n2nc(-c3ccc(OC(F)(F)F)cc3)cc(C(=O)N[C@@H]3COC[C@H]3O)c2=O)cn1` (single isomer, unassigned; enantiomer 1) [Example 64, N-[(trans)-4-Hydroxytetrahydrofuran-3-yl]-2-(1-methyl-1H-pyrazol-4-yl)-3-oxo-6-[4-(trifluoromethoxy)phenyl]-2,3-dihydropyridazine-4-carboxamide, Enantiomer 1], the half-inhibitory concentration (IC50) in experiment [1] is 81.6 nM; in experiment [2] it was over 20000 nM.

In the case of `O=C(NCC1(O)CCC1)c1cc(-c2ccc(C(F)(F)F)cc2)nn(-c2cnsc2)c1=O` [Example 195, N-[(1-Hydroxycyclobutyl)methyl]-3-oxo-2-(1,2-thiazol-4-yl)-6-[4-(trifluoromethyl)phenyl]-2,3-dihydropyridazine-4-carboxamide], the 50% inhibitory concentration (IC50) in experiment [1] is 0.363 nM; in experiment [2], over 20000 nM.

Turning to `Cc1cc(-n2nc(-c3ccc(Cl)cc3)cc(C(=O)N[C@@H](C)CO)c2=O)cs1` [Example 242, 6-(4-Chlorophenyl)-N-[(2S)-1-hydroxypropan-2-yl]-2-(5-methyl-3-thienyl)-3-oxo-2,3-dihydropyridazine-4-carboxamide], the IC50 in experiment [1] was 11.1 nM; in experiment [2], over 20000 nM.

Take `C[C@@H](CO)NC(=O)c1cc(-c2ccc(Cl)cc2)nn(-c2cn[nH]c2)c1=O` [Example 190, (+)-6-(4-Chlorophenyl)-N-[(2S)-1-hydroxypropan-2-yl]-3-oxo-2-(1H-pyrazol-4-yl)-2,3-dihydropyridazine-4-carboxamide]: the half-maximal inhibitory concentration (IC50) is 65.6 nM in experiment [1] and over 20000 nM in experiment [2].

Take `O=C(N[C@H](CO)C(F)(F)F)c1cc(-c2ccc(C(F)F)cc2)nn(-c2cccnc2)c1=O` [Example 127, 6-[4-(Difluoromethyl)phenyl]-3-oxo-2-(pyridin-3-yl)-N-[(2R)-1,1,1-trifluoro-3-hydroxypropan-2-yl]-2,3-dihydropyridazine-4-carboxamide]: the half-inhibitory concentration (IC50) is 4.17 nM in experiment [1] and over 20000 nM in experiment [2].

On to `Cn1cc(-n2nc(-c3ccc(OC(F)(F)F)cc3)cc(C(=O)N[C@@H]3COC[C@@H]3O)c2=O)cn1` (single isomer, unassigned; enantiomer 1) [Example 56, N-[(cis)-4-Hydroxytetrahydrofuran-3-yl]-2-(1-methyl-1H-pyrazol-4-yl)-3-oxo-6-[4-(trifluoromethoxy)phenyl]-2,3-dihydropyridazine-4-carboxamide, Enantiomer 1], for which the IC50 in experiment [1] was 25.6 nM; in experiment [2] it was over 20000 nM.

For `COC(=O)[C@@H](CO)NC(=O)c1cc(-c2ccc(Cl)cc2)nn(-c2cnn(C)c2)c1=O` [Example 267, Methyl N-{[6-(4-chlorophenyl)-2-(1-methyl-1H-pyrazol-4-yl)-3-oxo-2,3-dihydropyridazine-4-yl]carbonyl}-D-serinate], the half-maximal inhibitory concentration (IC50) in experiment [1] was 56.9 nM; in experiment [2], over 20000 nM.

Regarding `O=C(N[C@@H]1COC[C@@H]1O)c1cc(-c2ccc(C(F)F)cc2)nn(-c2cccnc2)c1=O` (relative stereo) [Example 323, 6-[4-(Difluoromethyl)phenyl]-N-[(cis)-4-hydroxy-tetrahydrofuran-3-yl]-3-oxo-2-(pyridin-3-yl)-2,3-dihydropyridazine-4-carboxamide], the figures for the IC50 in experiment [1] and in experiment [2] were 60.4 nM and over 20000 nM, respectively.

Regarding `Cc1cc(-n2nc(-c3ccc(Cl)cc3)cc(C(=O)NCC(C)(C)O)c2=O)cs1` [Example 246, 6-(4-Chlorophenyl)-N-(2-hydroxy-2-methylpropyl)-2-(5-methyl-3-thienyl)-3-oxo-2,3-dihydropyridazine-4-carboxamide], the IC50 is 13.2 nM in experiment [1] and over 20000 nM in experiment [2].

Regarding `O=C(NC[C@@H](O)CO)c1cc(-c2ccc(Cl)cc2)nn(-c2cncc(F)c2)c1=O` [Example 98, 6-(4-Chlorophenyl)-N-[(2R)-2,3-dihydroxypropyl]-2-(5-fluoropyridin-3-yl)-3-oxo-2,3-dihydropyridazine-4-carboxamide], the concentration for half-maximal inhibition (IC50) in experiment [1] was 251 nM; in experiment [2] it was over 20000 nM.

Consider `O=C(N[C@H]1COC[C@@H]1O)c1cc(-c2ccc(Cl)cc2)nn(-c2cccnc2)c1=O` (single isomer, unassigned; enantiomer 1) [Example 169, 6-(4-Chlorophenyl)-N-[(trans)-4-hydroxytetrahydrofuran-3-yl]-3-oxo-2-(pyridin-3-yl)-2,3-dihydropyridazine-4-carboxamide, Enantiomer 1], for which the IC50 in experiment [1] is 31.7 nM; in experiment [2], over 20000 nM.

`Cn1cc(-n2nc(-c3ccc(C(F)(F)F)cc3)cc(C(=O)NC[C@H](O)C(F)F)c2=O)cn1` [Example 219, N-[(2S)-3,3-Difluoro-2-hydroxypropyl]-2-(1-methyl-1H-pyrazol-4-yl)-3-oxo-6-[4-(trifluoromethyl)phenyl]-2,3-dihydropyridazine-4-carboxamide]: the IC50 in experiment [1] is 3.21 nM; in experiment [2], over 20000 nM.

Consider `C[C@@H](CO)NC(=O)c1cc(-c2ccc(CF)cc2)nn(-c2cccnc2)c1=O` [Example 285, 6-[4-(Fluoromethyl)phenyl]-N-[(2S)-1-hydroxypropan-2-yl]-3-oxo-2-(pyridin-3-yl)-2,3-dihydropyridazine-4-carboxamide], for which the IC50 is 602 nM in experiment [1] and over 20000 nM in experiment [2].

For the compound `Cn1cc(-n2nc(-c3ccc(OC(F)(F)F)cc3)cc(C(=O)NCC(C)(C)O)c2=O)cn1` [Example 59, N-(2-Hydroxy-2-methylpropyl)-2-(1-methyl-1H-pyrazol-4-yl)-3-oxo-6-[4-(trifluoromethoxy)phenyl]-2,3-dihydropyridazine-4-carboxamide], the 50% inhibitory concentration (IC50) in experiment [1] was 20 nM; in experiment [2], over 20000 nM.
